Where a chain is given by its changes, count along the chain named.

Drawing on patent publication US9468632B2, “Methods and compositions for targeting cancer stem cells” (The Regents of the University of Michigan, priority 2012, dated 2016), this text covers IC50 for one substance.

Common to all, as to assay type: biochemical
In one assay the target is T1, ALDH1A3 (Homo sapiens, UniProt P47895).
T1 sequence (P47895 1-512): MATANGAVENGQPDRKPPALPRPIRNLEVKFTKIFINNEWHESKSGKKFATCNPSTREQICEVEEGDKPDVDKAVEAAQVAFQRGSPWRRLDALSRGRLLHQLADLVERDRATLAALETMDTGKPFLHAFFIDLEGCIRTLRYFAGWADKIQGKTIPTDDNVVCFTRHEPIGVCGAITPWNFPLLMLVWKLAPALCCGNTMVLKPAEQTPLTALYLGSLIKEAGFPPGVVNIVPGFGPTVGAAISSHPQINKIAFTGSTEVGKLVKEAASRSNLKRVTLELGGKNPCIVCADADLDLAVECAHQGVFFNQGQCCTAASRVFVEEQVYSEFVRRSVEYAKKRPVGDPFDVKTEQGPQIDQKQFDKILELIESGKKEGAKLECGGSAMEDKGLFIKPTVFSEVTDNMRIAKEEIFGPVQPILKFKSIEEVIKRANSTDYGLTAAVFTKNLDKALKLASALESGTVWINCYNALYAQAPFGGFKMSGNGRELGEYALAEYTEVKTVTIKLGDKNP
Kind of assay: In vitro enzymatic inhibition assay, ALDH1A3.

Another assay addresses T2, ALDH1A2 (Homo sapiens, UniProt O94788).
T2 sequence (O94788 1-518): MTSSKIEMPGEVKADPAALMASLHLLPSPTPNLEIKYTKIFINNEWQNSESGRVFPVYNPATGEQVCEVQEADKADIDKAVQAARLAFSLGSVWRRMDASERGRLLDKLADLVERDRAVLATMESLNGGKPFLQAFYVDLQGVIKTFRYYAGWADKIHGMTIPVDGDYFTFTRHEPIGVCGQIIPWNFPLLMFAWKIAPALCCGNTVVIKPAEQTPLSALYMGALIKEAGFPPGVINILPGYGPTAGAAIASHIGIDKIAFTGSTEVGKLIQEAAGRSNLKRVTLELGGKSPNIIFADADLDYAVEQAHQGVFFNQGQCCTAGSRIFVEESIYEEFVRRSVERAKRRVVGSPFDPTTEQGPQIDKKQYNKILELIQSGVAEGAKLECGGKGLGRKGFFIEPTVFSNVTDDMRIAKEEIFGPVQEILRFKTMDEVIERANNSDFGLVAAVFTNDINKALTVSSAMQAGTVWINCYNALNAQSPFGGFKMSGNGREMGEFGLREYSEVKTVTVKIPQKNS
Kind of assay: In vitro enzymatic inhibition assay, ALDH1A2.

A further assay has as its target T3, ALDH1A1 (S121) (Homo sapiens, UniProt P00352, N121S).
T3 sequence (P00352 1-501 N121S): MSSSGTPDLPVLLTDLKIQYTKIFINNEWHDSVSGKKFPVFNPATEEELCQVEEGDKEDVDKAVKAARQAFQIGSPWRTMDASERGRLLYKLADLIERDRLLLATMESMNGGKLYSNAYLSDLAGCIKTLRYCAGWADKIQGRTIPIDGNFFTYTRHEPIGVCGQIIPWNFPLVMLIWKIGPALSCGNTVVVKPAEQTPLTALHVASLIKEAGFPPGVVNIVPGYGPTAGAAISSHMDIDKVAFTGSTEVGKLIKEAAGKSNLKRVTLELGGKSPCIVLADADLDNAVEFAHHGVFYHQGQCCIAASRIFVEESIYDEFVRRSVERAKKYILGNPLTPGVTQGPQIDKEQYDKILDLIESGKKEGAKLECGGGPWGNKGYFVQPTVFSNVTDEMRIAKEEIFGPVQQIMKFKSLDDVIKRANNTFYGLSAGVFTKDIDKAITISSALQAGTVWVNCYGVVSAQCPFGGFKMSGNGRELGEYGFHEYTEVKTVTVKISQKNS
Description: In vitro enzymatic inhibition assay, ALDH1A1 (S121).

The target in the next assay is T4, ALDH1A1 (WT) (Homo sapiens, UniProt P00352).
T4 sequence (P00352 1-501): T3 sequence (P00352 1-501 N121S) with S121N
Kind of assay: In vitro enzymatic inhibition assay, ALDH1A1 (WT). The settings on record: 2 min incub.

In another assay the target is ALDH3A1 (Homo sapiens, UniProt P30838). Description: In vitro enzymatic inhibition assay, ALDH3A1.
ALDH3A1, sequence (P30838 whole entry): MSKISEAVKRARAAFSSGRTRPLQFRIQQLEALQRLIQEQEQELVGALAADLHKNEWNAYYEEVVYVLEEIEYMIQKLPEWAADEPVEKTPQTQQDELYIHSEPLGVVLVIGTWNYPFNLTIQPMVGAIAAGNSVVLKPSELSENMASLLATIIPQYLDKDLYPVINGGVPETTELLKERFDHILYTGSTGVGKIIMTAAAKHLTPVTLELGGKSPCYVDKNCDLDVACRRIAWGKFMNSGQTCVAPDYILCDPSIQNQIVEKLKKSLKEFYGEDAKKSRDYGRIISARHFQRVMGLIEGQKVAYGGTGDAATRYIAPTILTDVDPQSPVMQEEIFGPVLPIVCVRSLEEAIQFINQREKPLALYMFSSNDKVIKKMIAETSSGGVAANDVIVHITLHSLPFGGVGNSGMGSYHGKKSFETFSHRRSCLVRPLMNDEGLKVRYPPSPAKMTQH

The term IC50 denotes the concentration needed to halve the response being measured. A high value points to lower potency. In the case of DEAB [reference compound], the IC50 was > 20000 nM against ALDH1A3; > 20000 nM on ALDH1A2; 1490 ± 240 nM against ALDH1A1 (S121); 519 ± 75 nM at ALDH1A1 (WT); > 20000 nM on ALDH3A1.
